Experimental findings from ChEMBL document CHEMBL5137063, “Medicinal Chemistry and Chemical Biology of Nurr1 Modulators: An Emerging Strategy in Neurodegeneration” (J Med Chem, 2022) are described below.

Assay [1] addresses T1, Nuclear receptor subfamily 4 group A member 2 (Homo sapiens, UniProt P43354). In words: Agonist activity at human Nurr1 measured by Gal4-Nurr1 hybrid reporter gene assay.
Assay [2] deals with T1, Nuclear receptor subfamily 4 group A member 2. In words: Antagonist activity at full length human Nurr1 expressed in HEK293T cells co-expressing 3xNBRE3-luciferase at 50 uM incubated for 18 hrs by luciferase transactivation assay relative to control. In kind it is cell-based. Also noted: scale not given: the % may be the effect or the level left.
Assay [3] has the same target. In words: Antagonist activity at full length human Nurr1 expressed in MN9D cells co-expressing 3xNBRE3-luciferase at 50 uM incubated for 18 hrs by luciferase transactivation assay relative to control. Also on record: scale not given: the % may be the effect or the level left. The format is cell-based.
For assay [4] the target is unchanged. The assay can be described thus: Agonist activity at Nurr1 in human SK-N-BE(2)-C cells measured by NBRE-based luciferase reporter gene assay. In kind it is cell-based. (In general: In a reporter assay the amount or activity of a reporter protein is the signal.)
The target of assay [5] is T2, Nuclear receptor subfamily 4 group A member 2 (Mus musculus, UniProt Q06219). In words: Agonist activity at Nurr1 in mouse MN9D cells measured by Gal4-based luciferase reporter gene assay. In kind it is cell-based.
The target in assay [6] is T1, Nuclear receptor subfamily 4 group A member 2. In words: Agonist activity at Nurr1 in human SK-N-BE(2)-C cells measured by Gal4-based luciferase reporter gene assay. The format is cell-based.
Assay [7] deals with T2, Nuclear receptor subfamily 4 group A member 2. In words: Agonist activity at Nurr1 in mouse MN9D cells measured by NBRE-based luciferase reporter gene assay. In kind it is cell-based.
Assay [8] deals with T3, Nuclear receptor subfamily 4 group A member 2 (Rattus norvegicus, UniProt Q07917). In words: Agonist activity at Nurr1 in rat N27-A cells measured by Gal4-based luciferase reporter gene assay. In kind it is cell-based.
In assay [9] the target is T3, Nuclear receptor subfamily 4 group A member 2. In words: Agonist activity at Nurr1 in rat N27-A cells measured by NBRE-based luciferase reporter gene assay. The format is cell-based.
Assay [10] has as its target T1, Nuclear receptor subfamily 4 group A member 2. In words: Agonist activity at Nurr1 ligand binding domain (unknown origin) measured by Gal4-based reporter gene assay.
The target is the same in assay [11]. The assay can be described thus: Binding affinity towards Nurr1 ligand binding domain (unknown origin) measured by tryptophan fluorescence spectroscopy.

T2 sequence (Q06219 whole entry, the tested form may be a part): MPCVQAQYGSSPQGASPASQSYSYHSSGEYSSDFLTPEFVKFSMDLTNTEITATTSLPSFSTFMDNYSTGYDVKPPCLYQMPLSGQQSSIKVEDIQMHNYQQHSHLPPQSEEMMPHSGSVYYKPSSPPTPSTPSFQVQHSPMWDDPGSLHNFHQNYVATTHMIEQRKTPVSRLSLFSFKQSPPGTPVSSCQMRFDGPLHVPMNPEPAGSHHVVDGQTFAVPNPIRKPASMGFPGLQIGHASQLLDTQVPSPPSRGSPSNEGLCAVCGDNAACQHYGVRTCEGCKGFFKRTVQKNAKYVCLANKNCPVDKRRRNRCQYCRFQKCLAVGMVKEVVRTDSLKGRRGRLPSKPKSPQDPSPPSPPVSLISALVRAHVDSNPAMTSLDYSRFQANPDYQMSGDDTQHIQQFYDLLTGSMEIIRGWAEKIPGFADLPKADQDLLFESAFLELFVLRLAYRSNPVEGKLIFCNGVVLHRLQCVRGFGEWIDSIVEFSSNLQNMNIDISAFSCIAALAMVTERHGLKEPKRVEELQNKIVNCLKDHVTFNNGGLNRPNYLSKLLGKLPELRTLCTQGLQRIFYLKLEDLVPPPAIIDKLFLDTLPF
T1 sequence (P43354 whole entry, the tested form may be a part): as the sequence (Q06219 whole entry, the tested form may be a part) above, with S131T, S134G, D354E counted along it
T3 sequence (Q07917 whole entry, the tested form may be a part): as the sequence (Q06219 whole entry, the tested form may be a part) above, with S134G, P182R counted along it

The EC50 is the concentration that produces a half-maximal response. Turning to `Fc1ccc(-c2c[nH]c3ccccc23)cc1`, a half-maximal response in [1] (EC50) required 7.7 µM.

As to `CC/C=C\C/C=C\C/C=C\C/C=C\C/C=C\C/C=C\CCC(=O)O`, the Activity in [2] and in [3] was 25% each time.

In the case of `CCCCC[C@H](O)/C=C/[C@H]1[C@H](O)CC(=O)[C@@H]1CCCCCCC(=O)O` [ALPROSTADIL], the EC50 in assay [4], in assay [5], in assay [6], in [7], in assay [8] and in assay [9] was 3 µM each time.

The compound `CCN(CC)Cc1cc(Nc2ccnc3cc(Cl)ccc23)ccc1O` [AMODIAQUINE] displayed an EC50 in [10] of 20 µM.

Usually Kd stands for a measure of binding affinity in units of concentration. As for `CCCCC/C=C\C/C=C\C/C=C\C/C=C\CCCC(=O)O` [ARACHIDONIC ACID], the Kd in assay [11] came to 50 µM.

For the compound `CCCCC/C=C\C/C=C\CCCCCCCC(=O)O` [LINOLEIC ACID], the Kd in assay [11] is 50 µM.

Turning to `CCCCCCCC/C=C\CCCCCCCC(=O)O` [OLEIC ACID], the Kd in assay [11] turned out to be 50 µM.

`CCCCC[C@H](O)/C=C/[C@H]1C=CC(=O)[C@@H]1CCCCCCC(=O)O` [PROSTAGLANDIN A1]: the EC50 in [4], in [5], in [6], in assay [7], in [8] and in assay [9] was 5 µM in each case.
